# In patent US20060264623A1, “DNA-PK inhibitors” (KuDOS Pharmaceuticals Limited, priority 2005, published 2006):
# Like-named read-outs stand apart in the source and are kept apart here.
# Assays:
# [1] = target: T1, DNA-PK (Homo sapiens, UniProt P78527); details: in vitro; read-out: IC50 towards DNA-PK; cited from earlier work
# [2] = target: PI 3-kinase; details: stated to be the same as for DNA-PK; cited from earlier work
# [3] = test system: cells; details: cited from earlier work
# [4] = target: T1, DNA-PK; assay: DNA-PK inhibition assay (ELISA, p53 serine 15 phosphorylation of GST-p53N66); assay type: biochemical, Mammalian (HeLa cell nuclear extract)
# Description: In order to assess the inhibitory action of the compounds against DNA-PK in vitro, the following assay was used to determine IC50 values.
# DNA-PK (250 ng) activity was measured at 30° C., in a final volume of 40 μl, in buffer containing 25 mM Hepes, pH7.4, 12.5 mM MgCl2, 50 mM KCl, 1 mM DTT, 10% Glycerol, 0.1% NP-40 and […] of the substrate GST-p53N66 (the amino terminal 66 amino acid resiudes of human wild type p53 fused to glutathione S-transferase) in polypropylene 96 well plates. To the assay mix, varying concentrations of inhibitor (in DMSO at a final concentration of 1%) were added. After 10 minutes of incubation, ATP was added to give a final concentration of 50 μM along with a 30mer double stranded DNA oligonucleotide (final concentraion of 0.5 ng/ml) to initiate the reaction. After 1 hour with shaking, 150 μl of phosphate buffered saline (PBS) was added to the reaction and 5 μl then transferred to a 96 well opaque white plate containing 45 μl of PBS per well where the GSTp53N66 substrate was allowed to bind to the wells for 1 hour. […] An anti-rabbit HRP conjugated secondary antibody (Pierce) was then employed in the ELISA before the addition of chemiluminescence reagent (NEN Renaissance) to detect the signal as measured by chemiluminescent counting via a TopCount NXT (Packard).
# The enzyme activity for each compound is then calculated using the following equation: [formula] […]
# [5] = test system: HeLa cells; assay: Survival Enhancement Ratio, clonogenic survival assay after 2 Gray irradiation; assay type: cell-based; details: inhibitor 500 nM
# Description: The Survival Enhancement Ratio (SER) is a ratio of the enhancement of cell kill elicited by the DNA-PK inhibitor after 2 Grays of irradiation compared to unirradiated control cells. DNA-PK inhibitors were used at a fixed concentration of 500 nM. Radiation was delivered by a Faxitron 43855D machine at a dose rate of 1 Gy pre minute The SER at 2 Gray irradiation was calculated from the formula: [formula]
# The degree of cell killing was monitored by a standard clonogenic survival assay. Briefly, tissue culture treated 6-well plates were seeded with HeLa cells at an appropriate concentration to give 100-200 colonies per well and returned to the incubator in order to allow the cells to attach. Four hours later, compound or vehicle control was added to the cells. The cells were then incubated for 1 hour in the presence of inhibitor prior to irradiation at 2 Gray using a Faxitron 43855D cabinet X-ray machine. The cells were then incubated for a further 16 hours before the media was replaced with fresh media in the absence of DNA-PK inhibitor. After 8 days, colonies formed were fixed and stained with Giemsa (Sigma, Poole, UK) and scored using an automated colony counter (Oxford Optronics Ltd, Oxford, UK). The data was calculated as described above.
SMILES,IC50 [1],IC50 [2],sensitisation of cells to the effects of IR [3],IC50 [4],SER (Survival Enhancement Ratio) [5]
O=c1cc(N2CCOCC2)oc2c(-c3ccccc3)cccc12 [LY294002],~1000 nM,~1000 nM,weakly sensitise,,
O=c1cc(N2CCOCC2)oc2c(-c3cccc(-c4ccccc4)c3)cccc12,,,,760 nM,1.5
